# From patent US20120213789A1, “New Molecular Target for Treatment of Cancer” (priority 2001, published 2012)
# Columns and labels:
# [1] = tested on: ML-SV40 Prostat Cell Line; assay: Dual label UC28 C/AnnexinV flow cytometry after SPB treatment; type: cell-based; settings: for Total AnnexV / Total UC28C: 72 hours, ML-SV40, UC28-GAR-CY5/AnnexV-FITC
# Experimental: (§1) Cells were grown to 70-80% confluence at 37° C. and 5% CO2 in T-75 tissue culture plastic flasks. SPB stock solution was added to final concentrations of 0.5, 5.0, 10.0, and 25.0 mM in appropriate fresh media to the cell cultures. Cells were incubated at 37° C. and 5% CO2 for 72 hours. Attached cells were then harvested using a solution of 0.05% trypsin and 0.53 mM EDTA (Invitrogen Corp.). Attached cells were then pooled with any the detached cells and washed with PBS pH 7.2. Cell numbers and percent viability were determined using Trypan blue dye exclusion and a hemacytometer. At the time of their use in an experiment the viability was usually about 85% for untreated cells and a range of about 15-70% for treated cells, with the lower viabilities found at higher SPB concentrations (Thompson C, 1995; Cory et al., 1998; van Engeland et al., 1996).
# VO1 Apoptosis Detection Kit contains: (1) Fluorocein-isothiocyante (FITC) conjugated AnnexinV [AnnexinV01] 1 ml (2) Propidium Iodide [Annex-Pi] 2.0 ml (3) 4× Binding Buffer [Annex-B] 20.0 ml. Vendor is CalTag Laboratories, Inc., 1849 Bayshore Boulevard #200 Burlingame, Calif. 94010.
# (§2) UC28(C) is 2.14 mg/ml rabbit polyclonal aliquot directed against the inventors' UC28 patented biomarker developed by UCor R&D gene discovery program. The Antibody was produced against a twenty amino acid (AA) synthetic peptide from the predicted AA sequence (AA 21-37) UCor, Inc. 840 Research Parkway Oklahoma City, Okla. 73104.
# (§3) Goat Anti-Rabbit CY5 polyclonal Fluorchrome was used as the secondary conjugate for UC28 C rabbit polyclonal antibody and a background control for UC28 C polyclonal. Vendor is Jackson ImmunoResearch Laboratories, Inc. 872 West Baltimore Pike, P.O. Box 9 West Grove, Pa. 19390.
# MsIgG-FITC mouse conjugated-FITC was used for background control for AnnexinV01. Vendor is Becicman Coulter, Inc. Diagnostic Division, 11800 SW 147th Ave. M/S 42-003, P.O. Box 169015, Miami, Floridia 33116-9015.
# A Coulter Elite engineered with a triple laser system was used to analyze all samples. Coulter control beads were used to align lasers for the dual label testing of cell samples. Laser alignment was required for both the Argon (488 nm line) laser and HeNe (633 nm line) laser. These alignments were performed prior to all measurements with the Argon laser (488 nm line) using fluorophores for FITC, RPE, PI and the HeNe laser (633 nm line) for the Cy5 fluorophores being used for the experiments described below. The histographs, voltage settings, gates, color compensation, and pressures were established prior to all sample processing. […]
# UC28 and Annexin V were co-labeled in the three cell lines to assess the induction of UC28 by SPB and its correlation to the induction of apoptosis. […] It may be noted that in previously published experiments, AnnexinV and PI were run in combination with several prostate cancer cell lines, one of which was LNCaP, but not with C4-2B or MLC-SV40. It was determined that they produced similar dose-response kinetics when exposed to 0.5-25 mM of SPB for 72 hours (Ng et al., 1989). That is, as the dose of SPB increased, so did the membrane perturbation events measured by these two methods.
# [2] = tested on: LNCaP Prostate Cell Line; assay: Dual label UROC28/Bcl-2 flow cytometry after SPB treatment; type: cell-based, human
# Experimental: as §1, §2, §3
# Bc12 IgG1 kappa-FITC isomer 1 is a purified monoclonal mouse specific for Bc1-2 protein. Vendor is Dalco Corporation 6392 Via Real, Carpinteria, Calif. 93013 USA.
# MsIgG1 kappa-FITC isomer 1 is a purified isotype specific control for Bc1-2 monoclonal antibody. Vendor is Dako Corporation 6392 Via Real, Carpinteria, Calif. 93013 USA.
# Cytofix/Cytoperm™ ICit enables fixation and permeabilization of cells prior to staining with fluorochrome-conjugated antibodies. Vendor is BD-PharMingen, 10975 Torreyana Road, San Diego, Calif. 92121-1106.
# A Coulter Elite engineered with a triple laser system was used to analyze all samples. Coulter control beads were used to align lasers for the dual label testing of cell samples. Laser alignment was required for both the Argon (488 nm line) laser and HeNe (633 nm line) laser. These alignments were performed prior to all measurements with the Argon laser (488 nm line) using fluorophores for FITC, RPE, PI and the HeNe laser (633 nm line) for the Cy5 fluorophores being used for the experiments described below. The histographs, voltage settings, gates, color compensation, and pressures were established prior to all sample processing.
# (a) Tissue culture cells (MLC-SV40, LNCaP and C 4-2B) were aliquoted at concentration of 1×10^6 per teach 12×75 mm polystyrene tube. […]
# [3] = Percent viability by Trypan blue dye exclusion after SPB treatment; type: cell-based; settings: prostate cell lines, treated cells, SPB 0.5-25.0 mM, untreated cells about 85%
# Experimental: as §1
# [4] = SPB, MLC-SV40, summary of Table 5
compound,measurement,setting,value
"O=C([O-])CCCc1ccccc1.[Na+] [SPB, 4-Phenylbutyric Acid, Sodium Salt]",Total AnnexV,[1]; 0.5 mM SPB,11.4%
same,Total UC28C,[1]; 0.5 mM SPB,8.6%
same,Total AnnexV,[1]; 5.0 mM SPB,90.2%
same,Total UC28C,[1]; 5.0 mM SPB,6.8%
same,Total AnnexV,[1]; 10 mM SPB,95.7%
same,Total UC28C,[1]; 10 mM SPB,6.8%
same,Total AnnexV,[1]; 25 mM SPB,90.7%
same,Total UC28C,[1]; 25 mM SPB,9.3%
same,UC28 up regulation,[1]; [4],not
same,induction of apoptosis,[1]; [4],induced
same,Total Bcl-2,[2]; 5.0 mM SPB,23.8%
same,Total UC2BC,[2]; 5.0 mM SPB,87.7%
same,Total Bcl-2,[2]; 10 mM SPB,15.6%
same,Total UC2BC,[2]; 10 mM SPB,83.0%
same,viability at 72 h,[3],15 to 70%
